Targets include HLA A*6802 (Homo sapiens, UniProt P04439, A269V/D140Y/D185E/E176V/E277Q/E87N/F33Y/G231S/I121R/I166T/I218V/L180W/L300P/L318F/N151K/P208A/P217A/Q86R/R138H/R169H/S129P/T345S/V36M); HLA B*3501 (Homo sapiens, UniProt P01889, A329T/A93T/A95T/C349S/D201E/D98Y/E176V/E187L/E204Q/E69T/I218V/K202T/L119I/Q94N/R155S/R180L/S121R/S35A/S48A/T118I/V127L/V306I/V36M/Y140S/Y91F); HLA B*5101 (Homo sapiens, UniProt P01889, A329T/A93T/A95T/C349S/D138N/D201E/D98Y/E187L/E204Q/E69T/G107R/I218V/K202T/L105A/L119W/N104I/Q94N/R106L/R155S/R180L/S101N/S121T/S35A/S48A/V306I/V36M/Y195H/Y91F); HLA B*5301 (Homo sapiens, UniProt P01889, A329T/A93T/A95T/C349S/D201E/D98Y/E176V/E187L/E204Q/E69T/G107R/I218V/K202T/L105A/L119I/N104I/Q94N/R106L/R155S/R180L/S101N/S121R/S35A/S48A/T118I/V127L/V306I/V36M/Y140S/Y91F); HLA B*5401 (Homo sapiens, UniProt P01889, A329T/C349S/D138N/D201E/E176V/E187T/E204Q/E69G/I76V/K202T/L119W/R155S/R180L/S121T/S35A/S48A/V127L/V306I/V36M/Y140L); HLA B*5801 (Homo sapiens, UniProt P01889, A329T/C349S/D201E/D98Y/E176V/E187L/E204Q/E69T/G107R/I218V/I90N/K202T/L105A/L119I/N104I/N87E/Q89R/Q94S/R106L/R155S/R180L/R86G/S101N/S121R/S35A/S48A/T118I/V127L/V306I/V36M/Y140S/Y91M); HLA B*5802 (Homo sapiens, UniProt P01889, A329T/C349S/D201E/D98Y/E176V/E187L/E204Q/E69T/G107R/I218V/I90N/K202T/L105A/N104I/N87E/Q89R/Q94S/R106L/R155S/R180L/R86G/S101N/S121W/S35A/S48A/V127L/V306I/V36M/Y140S/Y91M); H-2 D^b (Mus musculus, UniProt P01899); H-2 D^d (Mus musculus, UniProt P01900); H-2 K^d (Mus musculus, UniProt P01902); H-2 K^k (Mus musculus, UniProt P04223).

Holding throughout (type): binding
Another assay addresses HLA A*3001 (Homo sapiens, UniProt P04439, D140H/D185E/E176W/F33S/G80R/H175R/K168Q/R138E/R41S). Description: biochemical.
Another assay addresses HLA A*3201 (Homo sapiens, UniProt P04439, A270S/D101S/D185E/E176V/E277Q/F133L/G103R/G107R/G231S/H175R/I121M/I218V/I322F/K168Q/L105A/L300P/L318F/M331R/P208A/P217A/Q94H/R106L/R138Q/S129P/T104I/T323A/T345S/V100E/V321M/V358M). Description: biochemical.
The next assay deals with HLA B*0801 (Homo sapiens, UniProt P01889, A93T/A95T/D138N/E176V/E187T/K202T/Q94N/R180D/S35A/V36M/Y33D/Y91F). The experiment in a line: biochemical.
The target of another assay is HLA B*1501 (Homo sapiens, UniProt P01889, A329T/A93T/A95T/C349S/D201E/D98Y/E187L/E204Q/E69M/E70A/K202T/N87E/Q94N/R155S/R180W/S121R/S35A/S48A/V306I/V36M/Y140S/Y91S). Description: biochemical.
A further assay concerns the target HLA B*1503 (Homo sapiens, UniProt P01889, A329T/A93T/A95T/C349S/D201E/D98Y/E187L/E204Q/K202T/N87E/Q94N/R155S/R180L/S121R/S35A/V306I/V36M/Y140S/Y91S). The experiment in a line: biochemical.

H-2 D^d, sequence (P01900 whole entry, looked up): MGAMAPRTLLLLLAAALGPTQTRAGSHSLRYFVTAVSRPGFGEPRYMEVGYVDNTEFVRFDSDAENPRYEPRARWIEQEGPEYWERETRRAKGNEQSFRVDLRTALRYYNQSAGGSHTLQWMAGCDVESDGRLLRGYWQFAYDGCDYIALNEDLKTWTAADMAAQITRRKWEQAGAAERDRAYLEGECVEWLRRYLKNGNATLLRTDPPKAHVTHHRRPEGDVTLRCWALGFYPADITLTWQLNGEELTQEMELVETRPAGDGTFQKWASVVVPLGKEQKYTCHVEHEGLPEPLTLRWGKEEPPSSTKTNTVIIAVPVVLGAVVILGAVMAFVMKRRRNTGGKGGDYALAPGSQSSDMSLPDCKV
H-2 K^k, sequence (P01887 21-119): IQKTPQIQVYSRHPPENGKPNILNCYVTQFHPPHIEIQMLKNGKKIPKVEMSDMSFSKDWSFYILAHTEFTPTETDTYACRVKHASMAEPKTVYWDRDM
H-2 K^k, sequence (P04223 22-369): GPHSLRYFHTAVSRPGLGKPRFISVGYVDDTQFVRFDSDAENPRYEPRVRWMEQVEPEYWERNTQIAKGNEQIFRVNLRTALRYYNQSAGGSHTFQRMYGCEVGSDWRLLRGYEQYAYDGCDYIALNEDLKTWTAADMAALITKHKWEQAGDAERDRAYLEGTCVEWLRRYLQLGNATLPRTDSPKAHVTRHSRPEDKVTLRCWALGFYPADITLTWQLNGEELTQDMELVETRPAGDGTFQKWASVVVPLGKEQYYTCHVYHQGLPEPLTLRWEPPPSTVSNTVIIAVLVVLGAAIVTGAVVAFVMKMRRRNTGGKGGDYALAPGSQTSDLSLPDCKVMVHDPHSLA
H-2 D^b, sequence (P01887 21-119): as the sequence (P01887 21-119) above
H-2 D^b, sequence (P01899 25-362): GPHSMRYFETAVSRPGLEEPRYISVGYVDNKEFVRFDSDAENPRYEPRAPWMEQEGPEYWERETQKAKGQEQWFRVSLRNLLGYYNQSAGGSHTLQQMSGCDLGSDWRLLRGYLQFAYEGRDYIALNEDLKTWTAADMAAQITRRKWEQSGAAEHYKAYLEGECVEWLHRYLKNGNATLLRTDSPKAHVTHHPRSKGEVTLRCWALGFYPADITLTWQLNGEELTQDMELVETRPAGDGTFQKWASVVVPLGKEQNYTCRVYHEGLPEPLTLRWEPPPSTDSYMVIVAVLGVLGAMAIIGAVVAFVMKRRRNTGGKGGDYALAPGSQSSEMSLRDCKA
H-2 K^d, sequence (P01887 21-119): as the sequence (P01887 21-119) above
H-2 K^d, sequence (P01902 22-368): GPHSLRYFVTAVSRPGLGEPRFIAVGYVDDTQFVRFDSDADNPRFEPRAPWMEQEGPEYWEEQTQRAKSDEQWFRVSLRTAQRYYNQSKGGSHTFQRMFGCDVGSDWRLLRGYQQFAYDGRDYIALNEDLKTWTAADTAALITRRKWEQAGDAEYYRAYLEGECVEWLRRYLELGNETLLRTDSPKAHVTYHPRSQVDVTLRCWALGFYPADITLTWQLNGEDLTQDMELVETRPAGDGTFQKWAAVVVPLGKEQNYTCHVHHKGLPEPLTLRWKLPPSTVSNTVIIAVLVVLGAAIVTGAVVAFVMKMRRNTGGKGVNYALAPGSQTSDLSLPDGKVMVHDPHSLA

Take XXXXXXXIX [3064.0148]: the “Normalized average relative binding affinity(ARB)” value on HLA A*3001 amounted to 0.21; at HLA A*3201, 0.60; at HLA A*6802, 0.051; on HLA B*0801 it was 0.39; on HLA B*1501, 0.18; on HLA B*1503, 0.33. Moreover, the “Normalized average relative binding affinity(ARB)” value is recorded as 0.55 on HLA B*3501; 0.21 on HLA B*5101; 1.0 on HLA B*5301; 0.11 on HLA B*5401; 0.39 at HLA B*5801; 0.41 on HLA B*5802. In addition, the “Normalized average relative binding affinity(ARB)” value at H-2 D^b is listed as 0.14; on H-2 D^d, 0.25; on H-2 K^d it was 0.30; at H-2 K^k, 0.56.

In the case of XXXXXXXKX [3064.0149], the “Normalized average relative binding affinity(ARB)” value on HLA A*3001 was 0.12; on HLA A*3201, 0.24; at HLA A*6802 it was 0.12; at HLA B*0801 it was 0.14; at HLA B*1501, 0.24; at HLA B*1503 it was 0.085. Also, the “Normalized average relative binding affinity(ARB)” value on HLA B*3501 is given as 0.36; at HLA B*5101, 0.20; on HLA B*5301, 0.78; on HLA B*5401 it was 0.099; at HLA B*5801 it was 0.14; at HLA B*5802, 0.15. Besides, the “Normalized average relative binding affinity(ARB)” value at H-2 D^b is reported as 0.076; at H-2 D^d, 0.24; at H-2 K^d it was 0.23; at H-2 K^k it was 0.13.

For the sequence XXXXXXXLX [3064.0150], the “Normalized average relative binding affinity(ARB)” value on HLA A*3001 is listed as 0.23; on HLA A*3201, 0.29; on HLA A*6802, 0.16; on HLA B*0801 it was 0.11; on HLA B*1501 it was 0.15; at HLA B*1503 it was 0.13. In addition, the “Normalized average relative binding affinity(ARB)” value on HLA B*3501 is reported as 0.31; at HLA B*5101 it was 0.86; on HLA B*5301, 0.42; at HLA B*5401, 0.053; at HLA B*5801, 0.43; at HLA B*5802, 0.57. The “Normalized average relative binding affinity(ARB)” value at H-2 D^b stood at 0.46; on H-2 D^d, 0.80; at H-2 K^d it was 0.43; on H-2 K^k, 0.54.

Consider XXXXXXXMX [3064.0151], for which the “Normalized average relative binding affinity(ARB)” value is on record as 0.14 at HLA A*3001; 0.52 on HLA A*3201; 0.16 on HLA A*6802; 0.24 at HLA B*0801; 0.061 on HLA B*1501; 0.14 at HLA B*1503. For the same sequence, the “Normalized average relative binding affinity(ARB)” value on HLA B*3501 was 0.28; on HLA B*5101, 0.32; at HLA B*5301, 0.33; at HLA B*5401, 0.045; on HLA B*5801, 0.18; on HLA B*5802, 0.32. Further, the “Normalized average relative binding affinity(ARB)” value is on record as 0.17 on H-2 D^b, 0.47 at H-2 D^d, 0.43 at H-2 K^d and 0.49 at H-2 K^k.

Consider XXXXXXXNX [3064.0152], for which the “Normalized average relative binding affinity(ARB)” value at HLA A*3001 turned out to be 0.54; on HLA A*3201 it was 0.42; on HLA A*6802, 0.18; on HLA B*0801 it was 0.086; at HLA B*1501, 0.12; on HLA B*1503, 0.13. Also, the “Normalized average relative binding affinity(ARB)” value is 0.14 on HLA B*3501; 0.33 on HLA B*5101; 0.21 on HLA B*5301; 0.076 at HLA B*5401; 0.25 at HLA B*5801; 0.27 on HLA B*5802. Also, the “Normalized average relative binding affinity(ARB)” value at H-2 D^b was found to be 0.099; at H-2 D^d it was 0.49; at H-2 K^d it was 0.40; at H-2 K^k, 0.066.

For the sequence XXXXXXXPX [3064.0153], the “Normalized average relative binding affinity(ARB)” value came out at 0.80 on HLA A*3001; 0.87 on HLA A*3201; 0.33 at HLA A*6802; 0.73 on HLA B*0801; 0.35 on HLA B*1501; 0.30 at HLA B*1503. Besides, the “Normalized average relative binding affinity(ARB)” value at HLA B*3501 came to 0.64; at HLA B*5101, 0.51; at HLA B*5301, 0.15; at HLA B*5401 it was 0.72; at HLA B*5801 it was 0.18; at HLA B*5802, 0.16. Moreover, the “Normalized average relative binding affinity(ARB)” value on H-2 D^b was 1.0; on H-2 D^d, 0.73; on H-2 K^d, 0.75; on H-2 K^k it was 0.44.

Source of the values: publication PMC2248166, “Quantitative peptide binding motifs for 19 human and mouse MHC class I molecules derived using positional scanning combinatorial peptide libraries” (Immunome Research, 2008).
